This is an account of results in paper PMC7587356, “High-Throughput Screening for Inhibitors of the SARS-CoV-2 Protease Using a FRET-Biosensor” (Molecules, 2020).

The target in the assay is SARS-CoV-2 3CLpro (Severe acute respiratory syndrome coronavirus 2, UniProt P0DTD1). Briefly: biochemical. Format: biochemical. Set-up: Replicate_1 / Replicate_2 / mean / mean (LOPAC_screen_w_protease): unit not given here.
The mark [1] stands for this setting: sheet LOPAC_screen_w_protease, primary screen with protease, compound at 5 µM, mean of two replicates.
Where [2] appears, read: sheet LOPAC_screen_w_protease, primary screen with protease, compound at 5 µM, replicate 1.
[3] abbreviates: sheet LOPAC_screen_w_protease, primary screen with protease, compound at 5 µM, replicate 2.
Where [4] appears, read: sheet LOPAC_screen_w_protease, primary screen with protease, 5 µM, mean of two replicates.
Setting [5] is: sheet LOPAC_screen_w_protease, primary screen with protease, 5 µM, replicate 1.
[6] abbreviates: sheet LOPAC_screen_w_protease, primary screen with protease, 5 µM, replicate 2.
[7] abbreviates: sheet LOPAC_screen_w_protease, primary screen with protease, mean of two replicates.
Setting [8] is: sheet LOPAC_screen_w_protease, primary screen with protease, replicate 1.
Where [9] appears, read: sheet LOPAC_screen_w_protease, primary screen with protease, replicate 2.
Setting [10] is: sheet LOPAC_screen_w_protease, primary screen of LOPAC1280 at 5 µM with protease, mean of the two replicates.
Where [11] appears, read: sheet LOPAC_screen_w_protease, primary screen of LOPAC1280 at 5 µM with protease, replicate 1.
[12] abbreviates: sheet LOPAC_screen_w_protease, primary screen of LOPAC1280 at 5 µM with protease, replicate 2.
Where [13] appears, read: sheet LOPAC_screen_w_protease, LOPAC1280 primary screen at 5 µM, with protease, mean of the two replicates.
Setting [14] is: sheet LOPAC_screen_w_protease, LOPAC1280 primary screen at 5 µM, with protease, replicate 1.
Where [15] appears, read: sheet LOPAC_screen_w_protease, LOPAC1280 primary screen at 5 µM, with protease, replicate 2.

Turning to `Cl.NC1(C(=O)O)CCCCC1`, the mean under setting [1] came out at 2.729. Also, the Replicate_1 under setting [2] was 1.961. Further, the Replicate_2 under setting [3] was determined as 3.496.

Turning to `Clc1ccc(C(c2ccccc2Cl)C(Cl)Cl)cc1` (centres unmarked), the mean under setting [4] is on record as -0.2273. Moreover, the Replicate_1 under setting [5] is 0.8298. Besides, the Replicate_2 under setting [6] is given as -1.2843.

Regarding `COc1ccc2c(c1)c(CC(=O)O)c(C)n2Cc1ccc(Cl)cc1`, the mean under setting [4] turned out to be 0.3525. In addition, the Replicate_1 under setting [5] is -0.9083. This compound had a Replicate_2 under setting [6] of 1.613.

In the case of `COc1ccc2c(c1)c(CC(=O)O)c(C)n2Cc1ccc(F)cc1`, the mean under setting [7] came out at 2.348. Further, the Replicate_1 under setting [8] came out at 3.38. The Replicate_2 under setting [9] was determined as 1.3165.

In turn, `CC1CN(S(=O)(=O)c2cccc3cnccc23)CCN1.Cl.Cl` (centres unmarked) registered a mean under setting [7] of 2.412. Under setting [8], the Replicate_1 stood at 3.532. In addition, under setting [9], the Replicate_2 turned out to be 1.292.

For `COc1ccc2c(c1)c(CC(=O)O)c(C)n2C(=O)c1ccccc1`, the mean under setting [7] came out at 2.541. Under setting [8], this compound had a Replicate_1 of 2.008. The compound further gave a Replicate_2 under setting [9] of 3.073.

`CCN(CC)C(C)C(=O)N1c2ccccc2Sc2ccccc21.Cl` (centres unmarked) had a mean under setting [1] of 2.78. Further, the Replicate_1 under setting [2] was determined as 5.208. Moreover, the Replicate_2 under setting [3] is 0.3523.

On to `CSc1nc(N)c2ncn([C@@H]3O[C@H](COP(=O)([O-])OP(=O)([O-])OP(=O)([O-])[O-])[C@@H](O)[C@H]3O)c2n1.[Na+].[Na+].[Na+].[Na+]`, for which, under setting [7], the mean is given as 2.299. In addition, the Replicate_1 under setting [8] stood at 2.88. Also, under setting [9], the Replicate_2 is given as 1.718.

With `C[N+]1(C)C2CCC1CC(OC(=O)c1c[nH]c3ccccc13)C2.[I-]` (centres unmarked), the mean under setting [10] is on record as 3.717. Under setting [11], the Replicate_1 came out at 3.9921. Under setting [12], the Replicate_2 stood at 3.441.

The compound `Cl.Fc1ccc(C(OCCCc2c[nH]cn2)c2ccc(F)cc2)cc1` displayed a mean under setting [1] of 2.8. Besides, the Replicate_1 under setting [2] turned out to be 1.774. The Replicate_2 under setting [3] turned out to be 3.825.

On to `Cl.O=C(OC1CCN(CCCl)CC1)C(c1ccccc1)c1ccccc1`, for which, under setting [7], the mean was found to be 2.3143. The compound also had a Replicate_1 under setting [8] of 3.423. Further, under setting [9], the Replicate_2 came to 1.205.

Under setting [1], `Cc1cccc(C#Cc2ccccc2)n1.Cl` came in with a mean of 3.1043. Besides, the Replicate_1 under setting [2] is given as 2.241. Under setting [3], the Replicate_2 is 3.968.

With `Cl.Nc1ccn([C@@H]2O[C@H](CO)[C@@H](O)[C@@H]2O)c(=O)n1`, the mean under setting [7] turned out to be 2.239. Besides, the Replicate_1 under setting [8] came to 1.947. The compound also returned a Replicate_2 under setting [9] of 2.5319.

Turning to `COC(=O)[C@@H](N)Cc1ccc(O)c(O)c1.Cl`, the mean under setting [10] stood at 3.737. The compound also had a Replicate_1 under setting [11] of 4.528. This compound registered a Replicate_2 under setting [12] of 2.946.

The compound `CC(=N)NCCC[C@H](N)C(=O)O.Cl` gave a mean under setting [1] of 2.835. The compound further had a Replicate_1 under setting [2] of 2.586. Under setting [3], the Replicate_2 amounted to 3.084.

`COc1cccc(C(=O)NCCN2CCN(c3ccc(Cl)cc3)CC2)c1`: under setting [7], the mean amounted to 2.269. The Replicate_1 under setting [8] is given as 1.008. The Replicate_2 under setting [9] was 3.529.

Take `COC(=O)[C@@H](N)CCCN=C(N)N[N+](=O)[O-].Cl`: the mean under setting [10] is given as 3.268. Moreover, the Replicate_1 under setting [11] was found to be 2.366. This compound came in with a Replicate_2 under setting [12] of 4.171.

Under setting [10], `CCCN(CCC)CCc1c[nH]c2ccc(C(N)=O)cc12.O=C(O)/C=C\C(=O)O` had a mean of 3.512. Also, under setting [11], the Replicate_1 was 3.371. For the same compound, the Replicate_2 under setting [12] is 3.653.

Take `C[C@H](O)[C@H](O)[C@H]1CNc2nc(N)[nH]c(=O)c2N1.Cl`: under setting [1], the mean turned out to be 3.136. The Replicate_1 under setting [2] was found to be 3.694. The compound also gave a Replicate_2 under setting [3] of 2.577.

As to `CC[C@@H]1Cc2cc(O)ccc2C2=C1c1ccc(O)cc1C[C@H]2CC`, the mean under setting [10] turned out to be 3.66. Besides, the Replicate_1 under setting [11] worked out at 4.43. For the same compound, the Replicate_2 under setting [12] amounted to 2.89.

In the case of `Nc1ncnc2c1ncn2[C@@H]1O[C@H](COP(=O)(O)CP(=O)(O)OP(=O)([O-])[O-])[C@H](O)C1O.[Li+].[Li+]` (some centres unmarked), the mean under setting [1] is 2.729. The compound also registered a Replicate_1 under setting [2] of 1.677. Also, the Replicate_2 under setting [3] amounted to 3.782.

Compound `CCCCCCC(C(C)O)n1cnc2c(N)ncnc21.Cl` (centres unmarked) displayed a mean under setting [10] of 3.427. For the same compound, under setting [11], the Replicate_1 was found to be 4.751. Besides, under setting [12], the Replicate_2 is recorded as 2.103.

In the case of 17alpha-hydroxyprogesterone, the mean under setting [7] worked out at 2.147. Also, the Replicate_1 under setting [8] came out at 1.557.

`Cl.NCCC[C@](N)(C(=O)O)C(F)F` (racemic) gave a mean under setting [1] of 3.129. Besides, the Replicate_1 under setting [2] is listed as 3.2986. The same compound registered a Replicate_2 under setting [3] of 2.959.

`COC(=O)C(N)Cc1ccc(Cl)cc1.Cl` (racemic) returned a mean under setting [13] of 0.6507. For the same compound, the Replicate_1 under setting [14] is recorded as 2.428. The Replicate_2 under setting [15] is recorded as -1.1263.

In turn, `CC(N)c1cccc(Cl)c1Cl.Cl` (racemic) displayed a mean under setting [7] of 2.411. Under setting [8], this compound returned a Replicate_1 of 4.03. The compound further returned a Replicate_2 under setting [9] of 0.7923.

With `CC(N)(Cc1ccc(O)c(O)c1)C(=O)O` (racemic), where the note is “sheet LOPAC_screen_w_protease, primary screen at 5 µM, mean of two replicates”, the “mean (LOPAC screen with protease)” value is 6.44. Also, the “Replicate_1 (LOPAC screen with protease)” value (sheet LOPAC_screen_w_protease, primary screen at 5 µM, replicate 1) stood at 5.736. Further, the “Replicate_2 (LOPAC screen with protease)” value (sheet LOPAC_screen_w_protease, primary screen at 5 µM, replicate 2) stood at 7.145.

`CCCCCCCCCC(=O)NC(CN1CCOCC1)[C@H](O)c1ccccc1.Cl` (mixture of isomers) yielded a mean under setting [13] of 0.5952. Under setting [14], this compound showed a Replicate_1 of 1.232. Moreover, the Replicate_2 under setting [15] was -0.042.

In the case of `COC(=O)C(C)(N)Cc1ccc(O)cc1.Cl` (racemic), the mean under setting [1] came to 2.971. The compound further had a Replicate_1 under setting [2] of 4.293. Moreover, the Replicate_2 under setting [3] stood at 1.648.

For the compound `CCCCCCCCCCCCCCCC(=O)NCC(COP(=O)([O-])OCC[N+](C)(C)C)OCC` (racemic), the mean under setting [10] was 3.428. The compound further showed a Replicate_1 under setting [11] of 7.48. In addition, the Replicate_2 under setting [12] is -0.6245.

For the compound `CCCCCCCCCCCCCCCCCC(=O)NCC(COP(=O)([O-])OCC[N+](C)(C)C)OCC` (racemic), under setting [1], the mean was 3.086. Also, the Replicate_1 under setting [2] is given as 5.031. Also, the Replicate_2 under setting [3] is recorded as 1.141.

Under setting [1], `NC(CP(=O)(O)O)C(=O)O` (racemic) [(±)-2-Amino-3-phosphonopropionic acid] registered a mean of 3.099. Further, the Replicate_1 under setting [2] amounted to 4.251. In addition, under setting [3], the Replicate_2 was 1.946.

`NC(CCP(=O)(O)O)C(=O)O` (racemic) [(±)-2-Amino-4-phosphonobutyric acid] gave a mean (sheet LOPAC_screen_w_protease, LOPAC1280 at 5 µM, mean of two replicates) of 1.206. Under “sheet LOPAC_screen_w_protease, LOPAC1280 at 5 µM, replicate 1”, this compound had a Replicate_1 of 2.762. Besides, the Replicate_2 (sheet LOPAC_screen_w_protease, LOPAC1280 at 5 µM, replicate 2) was -0.351.

Consider `NC(CCCP(=O)(O)O)C(=O)O` (racemic) [(±)-2-Amino-5-phosphonopentanoic acid], for which the “mean (LOPAC_screen_w_protease)” value (LOPAC1280 primary screen with protease, 5 µM compound, mean of two replicates) was determined as 1.558. Further, the “Replicate_1 (LOPAC_screen_w_protease)” value (LOPAC1280 primary screen with protease, 5 µM compound, replicate 1) is given as 1.59. For the same compound, the “Replicate_2 (LOPAC_screen_w_protease)” value (LOPAC1280 primary screen with protease, 5 µM compound, replicate 2) worked out at 1.526.

`NC(CCCCCP(=O)(O)O)C(=O)O` (racemic) [(±)-2-Amino-7-phosphonoheptanoic acid] displayed a mean under setting [10] of 3.542. Moreover, under setting [11], the Replicate_1 was 3.653. Under setting [12], this compound yielded a Replicate_2 of 3.43.
